Data from publication PMC4835159 (Journal of Medicinal Chemistry, 2016).
≈ marks a conversion by molar mass, not a printed value. Like-named read-outs stand apart in the source and are kept apart here.

B1: Mycobacterium tuberculosis CYP121 (Rv2276), His6-tagged construct (enzyme)
chain: MTATVLLEVPFSARGDRIPDAVAELRTREPIRKVRTITGAEAWLVSSYALCTQVLEDRRFSMKETAAAGAPRLNALTVPPEVVNNMGNIADAGLRKAVMKAITPKAPGLEQFLRDTANSLLDNLITEGAPADLRNDFADPLATALHCKVLGIPQEDGPKLFRSLSIAFMSSADPIPAAKINWDRDIEYMAGILENPNITTGLMGELSRLRKDPAYSHVSDELFATIGVTFFGAGVISTGSFLTTALISLIQRPQLRNLLHEKPELIPAGVEELLRINLSFADGLPRLATADIQVGDVLVRKGELVLVLLEGANFDPEHFPNPGSIELDRPNPTSHLAFGRGQHFCPGSALGRRHAQIGIEALLKKMPGVDLAVPIDQLVWRTRFQRRIPERLPVLW

What was measured:
[1] = target: T1, CYP144TR (Mycobacterium tuberculosis, UniProt P9WPL1)
T1 sequence (P9WPL1 31-434 limits assumed): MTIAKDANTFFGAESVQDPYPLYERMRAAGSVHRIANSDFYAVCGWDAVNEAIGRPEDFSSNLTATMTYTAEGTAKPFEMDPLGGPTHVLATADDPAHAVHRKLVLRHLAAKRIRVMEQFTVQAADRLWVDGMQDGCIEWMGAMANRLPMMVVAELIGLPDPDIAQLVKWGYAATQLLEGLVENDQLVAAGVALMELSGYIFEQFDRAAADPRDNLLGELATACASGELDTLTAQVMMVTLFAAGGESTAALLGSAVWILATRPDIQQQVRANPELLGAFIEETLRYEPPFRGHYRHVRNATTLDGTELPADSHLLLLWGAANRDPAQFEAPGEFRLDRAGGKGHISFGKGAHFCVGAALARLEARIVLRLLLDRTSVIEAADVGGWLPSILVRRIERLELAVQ

[2] = target: T2, CYP125 (Mycobacterium tuberculosis, UniProt P9WPP1); assay: Single shot UV–vis binding mode assay on CYP125
T2 sequence (P9WPP1 1-433): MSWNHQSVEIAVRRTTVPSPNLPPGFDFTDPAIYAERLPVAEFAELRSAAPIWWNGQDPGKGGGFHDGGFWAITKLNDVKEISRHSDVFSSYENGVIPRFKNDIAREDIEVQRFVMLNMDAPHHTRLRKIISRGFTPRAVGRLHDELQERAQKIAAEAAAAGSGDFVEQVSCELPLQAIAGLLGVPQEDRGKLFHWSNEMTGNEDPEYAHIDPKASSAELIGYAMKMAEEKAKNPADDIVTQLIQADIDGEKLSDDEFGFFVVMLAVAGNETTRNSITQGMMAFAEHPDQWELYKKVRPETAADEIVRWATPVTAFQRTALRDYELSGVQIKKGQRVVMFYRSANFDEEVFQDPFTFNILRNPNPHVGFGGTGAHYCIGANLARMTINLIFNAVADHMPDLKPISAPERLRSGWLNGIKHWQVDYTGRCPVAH

[3] = target: T3, CYP121 (Mycobacterium tuberculosis, UniProt P9WPP7); assay: Single shot UV–vis absorbance assay (Soret band shift, competition with type II inhibitor) on CYP121; type: binding; conditions: for Binding Mode, CYP121: analogues 100 μM or 1 mM, P450 2.5–5 μM
[4] = system: CYP1A (combined CYP1A1 and CYP1A2); assay: Human P450 inhibition in human liver microsomes, CYP1A (ethoxyresorufin); conditions: human
[5] = target: T3, CYP121; type: binding
[6] = system: Mtb H37Rv; assay: Antimycobacterial activity assay (MIC90); type: cell-based, Mycobacterium tuberculosis; set-up: key to MIC90: “N” indicates that compounds did not produce any significant cell death within the tested concentration range; conditions: triplicate, 0–100 μM, 2 weeks
[7] = target: T3, CYP121; assay: Native mass spectrometry of CYP121 with ligands; type: binding
[8] = system: CYP1A; assay: Human P450 inhibition in human liver microsomes, CYP1A (ethoxyresorufin); conditions: IC50 for CYP1A versus CYP121 KD
[9] = target: T4, CYP143 (Mycobacterium tuberculosis, UniProt P9WPL3); assay: Single shot UV–vis binding mode assay on CYP143; conditions: analogues 100 μM or 1 mM, P450 2.5–5 μM
T4 construct: made in house
T4 sequence (P9WPL3 whole entry): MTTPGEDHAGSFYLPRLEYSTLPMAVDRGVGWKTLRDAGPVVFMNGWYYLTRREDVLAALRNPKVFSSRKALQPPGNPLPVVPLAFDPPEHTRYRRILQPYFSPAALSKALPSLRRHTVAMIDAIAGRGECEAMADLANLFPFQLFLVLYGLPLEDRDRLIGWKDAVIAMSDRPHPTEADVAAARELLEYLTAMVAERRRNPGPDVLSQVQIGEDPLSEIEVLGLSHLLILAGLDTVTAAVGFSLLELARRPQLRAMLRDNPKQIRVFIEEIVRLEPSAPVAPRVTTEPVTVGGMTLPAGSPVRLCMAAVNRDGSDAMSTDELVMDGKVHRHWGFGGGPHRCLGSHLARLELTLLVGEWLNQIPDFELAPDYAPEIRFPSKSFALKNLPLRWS
Experimental: UV–vis screening was performed using a CARY400 UV–vis spectrophotometer (Varian, CA, USA). Ligands were prepared as DMSO-d6 stock solutions (1–100 mM) and added to protein (5 μM) solutions (198 μL) or to buffer alone to give a final DMSO-d6 concentration of 1% v/v. CYP121 was prepared in 50 mM Tris-HCl (pH 7.2), 1 mM EDTA buffer. CYP125, CYP126, CYP142, CYP143, and CYP144 were prepared in 50 mM Tris-HCl (pH 7.5), 100 mM KCl buffer. CYP124 was prepared in 100 mM potassium phosphate (pH 7.0), 100 mM KCl buffer. Spectra were recorded between 800 and 250 nm at 25 °C. Any spectral interference from the inherent absorbance of added ligands/solvent was removed by subtracting spectra collected for protein-free samples of the same ligands/solvent in buffer. The difference in Soret wavelength maximum (Δλmax) of the respective P450s Soret band (λmax) in the presence of ligands compared to that obtained for a 1% v/v DMSO-d6 control was used to identify type I or type II heme-binding interactions. […]
The difference in the red-shift of the Soret band between competition assays and that found for the known type II ligand in the absence of competing ligands was used to determine competitive binding. Buffer control spectra were collected to account for any inherent absorbance of added ligands/solvent and all solutions were inspected and found to be free of precipitate. […]

[10] = target: the molecule itself; assay: native MS

Molecule | Binding Mode, CYP144TR [1] | Binding Mode, CYP125 [2] | LE (ligand efficiency) [5] | Monomer (%) of CYP121 ([7]; Protein-Ligand Ratio 1:0.5) [%] | ligand binding stoichiometry, CYP121 Dimer ([7]; Protein-Ligand Ratio 1:0.5) | ligand binding stoichiometry, CYP121 Monomer ([7]; Protein-Ligand Ratio 1:0.5) | Monomer (%) of CYP121 ([7]; Protein-Ligand Ratio 1:1) [%] | ligand binding stoichiometry, CYP121 Dimer ([7]; Protein-Ligand Ratio 1:1) | ligand binding stoichiometry, CYP121 Monomer ([7]; Protein-Ligand Ratio 1:1) | Monomer (%) of CYP121 ([7]; Protein-Ligand Ratio 1:25) [%] | ligand binding stoichiometry, CYP121 Dimer ([7]; Protein-Ligand Ratio 1:25) | ligand binding stoichiometry, CYP121 Monomer ([7]; Protein-Ligand Ratio 1:25) | Binding Mode, CYP121 [3] | Binding Mode, CYP143 [9] | MIC90 [6] | also measured
Nc1cccc(-c2cccc(-c3c(-c4ccc(O)cc4)n[nH]c3N)c2)c1 [25a, 4-(5-Amino-4-(3′-amino-[1,1′-biphenyl]-3-yl)-1H-pyrazol-3-yl)phenol] | N | N | 0.41 | 14 | 1 | 1 | 13 | 2 | 1 | 0 | 2 | 1 | – | – | – | shifts in the CYP121 optical spectrum ([3]; UV–vis spectroscopy): type II shifts; Δλmax (type II shift) ([3]; ligand 100 μM, CYP121): +5.0 nm; selectivity ratio [4]: ~15000; MIC90 ([6]; Mycobacterium tuberculosis, 336 h, read-out: MIC90): 100 µM (≈ 34.2 µg/mL)
Oc1ccc(CNc2[nH]nc(-c3ccc(O)cc3)c2-c2ccc(O)cc2)cc1 [26a, 4,4′-(5-((4-Hydroxybenzyl)amino)-1H-pyrazole-3,4-diyl)diphenol] | N | – | 0.25 | 14 | 1 | 0 | 29 | 1 | 0 | 14 | 2 | 1 | N | N | N | app SR (IC50/KD) [8]: >4
Nc1[nH]nc(-c2ccc(O)cc2)c1-c1ccc(O)cc1 [compound 5, 4,4′-(5-Amino-1H-pyrazole-3,4-diyl)diphenol] | N | N | – | – | – | – | – | – | – | – | – | – | N | N | N | LE (ligand efficiency) ([5]; Gibbs free energy of binding to CYP121 divided by number of heavy atoms (ΔG/HA)): 0.30
B1 | – | – | – | – | – | – | – | – | – | – | – | – | – | – | – | stoichiometry N [10]: 2
